Where a SMILES comes first, the peptide text is derived from it. Bridges are numbered along the chain shown (N, C = ends). [ ]: non-standard residue; d: D form. R8 = C=CCCCCCC[C@@](C)(N)C(=O)O; Cba = N[C@@H](CC1CCC1)C(=O)O; S5 = C=CCCC[C@](C)(N)C(=O)O
What was measured:
MDMX = target: T1, MDMX (Homo sapiens, UniProt O15151); test: Experimental MDMX binding (Table 4)
T1 sequence (O15151 1-490): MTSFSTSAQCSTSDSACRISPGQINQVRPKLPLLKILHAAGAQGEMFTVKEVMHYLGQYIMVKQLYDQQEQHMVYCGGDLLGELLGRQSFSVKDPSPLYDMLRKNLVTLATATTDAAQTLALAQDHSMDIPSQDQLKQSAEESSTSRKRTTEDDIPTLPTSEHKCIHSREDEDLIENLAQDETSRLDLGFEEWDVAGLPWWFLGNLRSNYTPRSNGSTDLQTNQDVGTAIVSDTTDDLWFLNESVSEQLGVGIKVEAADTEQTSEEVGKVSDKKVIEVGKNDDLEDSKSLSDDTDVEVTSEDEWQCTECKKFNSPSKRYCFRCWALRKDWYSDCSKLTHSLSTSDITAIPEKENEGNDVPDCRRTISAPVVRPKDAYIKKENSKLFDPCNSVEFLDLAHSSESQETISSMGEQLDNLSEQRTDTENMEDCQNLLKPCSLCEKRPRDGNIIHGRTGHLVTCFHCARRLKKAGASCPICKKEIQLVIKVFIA
From the text: Table 4 Prospective Testing Data. | column: Experimental MDMX / Kd (nM); Experimental MDMX / ΔΔG (kcal)

MDM2 (1-125) = target: T2, MDM2 (1-125) (Homo sapiens, UniProt Q00987); test: Mdm2 competitive fluorescence anisotropy assay; type: binding; conditions: read-out: Experimental MDM2 Kd
T2 construct: Purified MDM2 (1-125) protein was titrated against
T2 sequence (Q00987 1-125): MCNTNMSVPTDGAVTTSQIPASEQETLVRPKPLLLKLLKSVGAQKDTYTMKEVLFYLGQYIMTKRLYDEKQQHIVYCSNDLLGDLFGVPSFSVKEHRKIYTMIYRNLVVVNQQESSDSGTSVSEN
Method: Mdm2 Competitive Fluorescence Anisotropy Assay and Kd Determination Purified MDM2 (1-125) protein was titrated against 50 nM carboxyfluorescein (FAM)-labeled 12/1 peptide (FAM-[…]-NH2). […] (4) r=r0+(rb−r0)((Kd+[L]t+[P]t)−(Kd+[L]t+[P]t)^2−4[L]t[P]t/2[L]t)
[P] is the protein concentration (MDM2), [L] is the labeled peptide concentration, r is the anisotropy measured, ro is the anisotropy of the free peptide, rb is the anisotropy of the MDM2–FAM-labeled peptide complex, Kd is the dissociation constant, [L]t is the total FAM-labeled peptide concentration, and [P]t is the total MDM2 concentration.
Apparent Kd values were determined for a variety of molecules via competitive fluorescence anisotropy experiments. Titrations were carried out with the concentration of MDM2 held constant at 250 nM and the labeled peptide at 50 nM. The competing molecules were then titrated against the complex of the FAM-labeled peptide and protein. Apparent Kd values were determined by fitting the experimental data to the equations shown below: [58, 59]. […]
[L]st and [L]t denote labeled ligand and total unlabeled ligand input concentrations, respectively. […] Kd1 is the apparent Kd for the labeled peptide used in the respective experiment, which has been experimentally determined as described in the previous paragraph. […] Readings were carried out with an Envision Multilabel Reader (PerkinElmer). […]

CC(=O)N[C@@H](CC(C)C)C(=O)N[C@H](C(=O)N[C@@H](Cc1ccccc1)C(=O)N[C@]1(C)CCCCCCC=CCCC[C@@](C)(C(=O)N[C@@H](CO)C(=O)N[C@@H](C)C(=O)N[C@@H](C)C(N)=O)NC(=O)[C@H](CC2CCC2)NC(=O)[C@H](CC(C)C)NC(=O)[C@H](CCC(N)=O)NC(=O)[C@H](Cc2c[nH]c3ccccc23)NC(=O)[C@H](Cc2ccc(O)cc2)NC(=O)[C@H](CCC(=O)O)NC1=O)[C@@H](C)O [WT]
Kd (MDMX): 12.5 nM

CC(=O)N[C@@H](CC(C)C)C(=O)N[C@H](C(=O)N[C@@H](Cc1ccccc1)C(=O)N[C@]1(C)CCCCCCC=CCCC[C@@](C)(C(=O)N[C@@H](CO)C(=O)N[C@@H](C)C(=O)N[C@@H](C)C(N)=O)NC(=O)[C@H](CC2CCC2)NC(=O)[C@H](CC(C)C)NC(=O)[C@H](CCC(N)=O)NC(=O)[C@H](Cc2c[nH]c3ccccc23)NC(=O)[C@H](C)NC(=O)[C@H](CCC(=O)O)NC1=O)[C@@H](C)O [Y6A] (Ac-LTF[R8]EAWQL[Cba][S5]SAA-NH2; staple 4-11)
Kd (MDM2 (1-125)): 51.5 nM
Kd (MDMX): 130 nM

CC(=O)N[C@@H](CC(C)C)C(=O)N[C@H](C(=O)N[C@@H](Cc1ccccc1)C(=O)N[C@]1(C)CCCCCCC=CCCC[C@@](C)(C(=O)N[C@@H](CO)C(=O)N[C@@H](C)C(=O)N[C@@H](C)C(N)=O)NC(=O)[C@H](CC2CCC2)NC(=O)[C@H](CC(C)C)NC(=O)[C@H](CCC(N)=O)NC(=O)[C@H](Cc2c[nH]c3ccccc23)NC(=O)[C@@H](Cc2ccc(O)cc2)NC(=O)[C@H](CCC(=O)O)NC1=O)[C@@H](C)O [Y6dY]
Kd (MDM2 (1-125)): 365 nM
Kd (MDMX): 921 nM

Reference: PMC6943714, “Rigorous Computational and Experimental Investigations on MDM2/MDMX-Targeted Linear and Macrocyclic Peptides” (Molecules, 2019)
